This is an account of results in patent US10973815B2, “Delta opioid agonist mu opioid antagonist compositions and methods for treating Parkinsons disease” (priority 2016, dated 2021).

The subject of data set [1] is MPTP-lesioned primate (marmosets) model of Parkinson's disease. As to conditions: 10 mg/kg i.p.; without attenuation of the anti-parkinsonian actions of L-DOPA; cited from earlier work.
Data set [2] has as its system MPTP-lesioned cynomolgus macaques. The data set can be described thus: Acute DPI-289 in combination with low-dose L-DOPA, versus high-dose L-DOPA, in MPTP-lesioned macaques with L-DOPA-induced dyskinesia. It counts as in vivo, Macaca fascicularis. As to conditions: high dose L-DOPA alone (about 30 to 31 mg/kg). The text has this:
This study utilized female MPTP-lesioned cynomolgus macaques that have received chronic repeat-treatment with L-DOPA and manifested stable and reproducible dyskinesia, of choreic and dystonic nature, in response to subsequent L-DOPA-treatments. Eight cynomolgus monkeys (Macaca fascicularis, 7.6-13.1 years of age, 3.0-4.5 kg) were used in this study. In a prior experiment, for each individual animal a low and high dose of L-DOPA was established such that the low dose (LD1) provided modest anti-parkinsonian action (1-2 h) and elicited predominantly non-disabling dyskinesia, the high dose (LDh) provided the best anti-parkinsonian effect achievable but also elicited disabling dyskinesia and an anti-parkinsonian benefit of 2-3 h duration
The behavioral effects of acute DPI-289 administered in combination with low-dose L-DOPA (LD1) were assessed. Also higher dose of L-DOPA was also assessed without the addition of DPI-289. The low dose (LD1) was about 10 to 11 mg/kg of L-DOPA which is considered to be sub-optimal in terms of anti-parkinsonian benefit. The dose of DPI-289 was 20 mg/kg and the high dose of L-DOPA was about 30 to 31 mg/kg and considered to an optimal does in terms of anti-parkinsonian benefit but with disabling dyskinesia. The DPI-289 was administered one (1) hour prior to the L-DOPA and start of observation. Activity counts were collected and parkinsonian disability and dyskinesia was assessed via post-hoc analysis of video-recordings by a movement disorder neurologist blinded to treatment.
On the day before behavioral observations, food was removed overnight, from 5 p.m. On days of behavioral assessment, treatment was administered to the animals in their home cage at approximately 9 a.m. A 6 h period of observation then commenced 1 h after oral dosing.
The animals were rendered parkinsonian by once daily subcutaneous injection of 0.2 mg/kg MPTP, administered for 8-12 days, until the first appearance of parkinsonism symptoms. After this time, a parkinsonian syndrome reached a moderate to marked level, over approximately 30 days, and stabilized. Additional administrations of MPTP were given to some animals to titrate to similar degrees of parkinsonism in individuals across the group. […] Sixty days after commencing MPTP administration, L-DOPA (25 mg/kg) was administered orally twice daily for at least two months. L-DOPA was given with the decarboxylase inhibitor benserazide (as Madopar™). This treatment leads to the development of motor fluctuations, including dyskinesia.

The subject of data set [3] is unilateral 6-OHDA-lesioned Rats. As to the kind of experiment: Postural asymmetry and dyskinesia (AIMs) on repeated dosing in unilateral 6-OHDA-lesioned rats. It is filed as in vivo, rat. As to conditions: 6 mg/kg i.p. daily for 15 days.
Data set [4] deals with rats treated with reserpine or dopamine receptor antagonists (haloperidol or SCH23390). As to conditions: 10 mg/kg i.p.; cited from earlier work.
Another data set deals with MPTP-treated marmosets. As to conditions: similar dose levels (10 mg/kg); cited from earlier work.
In the next data set the test system is mice. The conditions noted are these: cited from earlier work.
The next data set deals with rats. The conditions noted are these: cited from earlier work.

Consider `COc1cccc2c1[C@]13CCN(CC4CC4)[C@H](C2)[C@]1(OC)CCC(=O)C3` [cyprodime], for which, in data set [1], the L-DOPA-induced dyskinesia entry is “reduce completely L-DOPA-induced dyskinesia”.
As to `N[C@@H](Cc1ccc(O)c(O)c1)C(=O)O` [L-DOPA, reference compound], in data set [2], the dyskinesia entry is reported as “severe dyskinesia in the first three hours after dosage” and the parkinsonian disability entry is given as “parkinsonian disability increased in the last four to six hours”. In addition, the postural asymmetry entry in data set [3] was “reduced or reversed the postural asymmetry”.
As to `C=CCN1C[C@H](C)N([C@H](c2ccc(C(=O)N(CC)CC)cc2)c2cccc(OC)c2)C[C@H]1C` [SNC80], the “behavioral deficits (ambulatory behavior, grooming, rearing, social interaction and exploration, static investigation)” value in data set [4] was “restored behavioral deficits”. In addition, in the data set with MPTP-treated marmosets, the “motor activity, bradykinesia and disability scores” value is “restored motor activity, bradykinesia and disability scores to normal”; the parkinsonian posture entry is listed as “not statistically reversed”. The convulsions result in the data set with mice is on record as “seizure-like convulsions”. The convulsions entry in the data set with rats was “seizure-like convulsions”.
